# From ChEMBL document CHEMBL1201862, “PubChem BioAssay data set” (2004)
#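 Tested at 5 concentrations; 48 h exposure; 96-well plates; endpoints linearly interpolated, else capped at highest concentration. GI50 = concentration required for 50% inhibition of growth.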 Calls of active or inactive are those of the source. Rule as the data show it: active = GI50 up to about 1.1 µM and inactive = higher.
# Legend:
# Assay in all cases: NCI anticancer screen, dose series, 48 h
# A549 = system: A549
# DU-145 = system: DU-145
# EKVX = system: EKVX
# HCT-116 = system: HCT-116
# HCT-15 = system: HCT-15
# HOP-92 = system: HOP-92
# Hs-578T = system: Hs-578T
# M14 = system: M14
# MCF7 = system: MCF7
# MDA-N = system: MDA-N
# OVCAR-4 = system: OVCAR-4
# SF-539 = system: SF-539
# SK-MEL-28 = system: SK-MEL-28
# SK-MEL-2 = system: SK-MEL-2
# SK-MEL-5 = system: SK-MEL-5
# SK-OV-3 = system: SK-OV-3
# SN12C = system: SN12C
# T47D = system: T47D
# UACC-62 = system: UACC-62
SMILES,GI50 (A549),GI50 (DU-145),GI50 (EKVX),GI50 (HCT-116),GI50 (HCT-15) [µM],GI50 (HOP-92),GI50 (Hs-578T),GI50 (M14),GI50 (MCF7),GI50 (MDA-N),GI50 (OVCAR-4),GI50 (SF-539),GI50 (SK-MEL-28),GI50 (SK-MEL-2),GI50 (SK-MEL-5),GI50 (SK-OV-3),GI50 (SN12C),GI50 (T47D),GI50 (UACC-62)
CN(C)c1ccc(Cc2cc3c(O)ccc(O)c3cc(Cc3ccc(N(C)C)cc3)c2=O)cc1,30.5 µM (inactive),26.9 µM (inactive),19 µM (inactive),11.7 µM (inactive),21.5,3.08 µM (inactive),44.3 µM (inactive),17.5 µM (inactive),17.3 µM (inactive),18.8 µM (inactive),18.1 µM (inactive),26.1 µM (inactive),18.9 µM (inactive),36.6 µM (inactive),19.2 µM (inactive),> 100 µM (inactive),28.2 µM (inactive),4.09 µM (inactive),26 µM (inactive)
CCOC(=O)c1cccc([N+](=O)[O-])c1N,> 100 µM (inactive),> 100 µM (inactive),6.11 µM (inactive),> 100 µM (inactive),> 100,> 100 µM (inactive),41.2 µM (inactive),> 100 µM (inactive),> 100 µM (inactive),> 100 µM (inactive),> 100 µM (inactive),> 100 µM (inactive),> 100 µM (inactive),> 100 µM (inactive),> 100 µM (inactive),> 100 µM (inactive),> 100 µM (inactive),> 100 µM (inactive),> 100 µM (inactive)
Cc1ccc2c(c1)[nH]c(=S)n2C=C1C(=O)CC(C)(C)CC1=O,> 100 µM (inactive),> 100 µM (inactive),18.9 µM (inactive),> 100 µM (inactive),> 100,> 100 µM (inactive),> 100 µM (inactive),> 100 µM (inactive),> 100 µM (inactive),> 100 µM (inactive),> 100 µM (inactive),> 100 µM (inactive),> 100 µM (inactive),> 100 µM (inactive),> 100 µM (inactive),> 100 µM (inactive),> 100 µM (inactive),> 100 µM (inactive),> 100 µM (inactive)
CNC(=O)CC1NC(=O)c2csc(n2)-c2ccc(-c3nc(C4=NC(C(=O)N5CCCC5C(N)=O)CO4)cs3)nc2-c2csc(n2)-c2csc(n2)C(C(C)C)NC(=O)CNC(=O)c2csc(n2)C(C(C)C)NC(=O)c2nc1sc2C (stereo not given),0.00724 µM (active),0.0038 µM (active),2.38 µM (inactive),0.00114 µM (active),0.479,0.968 µM (active),> 25 µM (inactive),0.0123 µM (active),> 25 µM (inactive),> 25 µM (inactive),4.33 µM (inactive),0.00113 µM (active),> 25 µM (inactive),0.0155 µM (active),0.00289 µM (active),0.0013 µM (active),0.00398 µM (active),0.0033 µM (active),0.00438 µM (active)
COc1ccc2c(c1)C1=NCCN(CCN(C)C)c3ccc([N+](=O)[O-])c(c31)N2,0.417 µM (active),0.48 µM (active),0.736 µM (active),0.116 µM (active),0.395,0.603 µM (active),1.75 µM (inactive),0.489 µM (active),0.365 µM (active),0.542 µM (active),0.191 µM (active),0.432 µM (active),1.28 µM (inactive),1.45 µM (inactive),0.845 µM (active),0.259 µM (active),0.568 µM (active),0.156 µM (active),0.535 µM (active)
O=C(C1OC1c1cccc([N+](=O)[O-])c1)C12CC3CC(CC(C3)C1)C2 (stereo not given),12.9 µM (inactive),13.8 µM (inactive),13.2 µM (inactive),2.14 µM (inactive),4.3,10.9 µM (inactive),3.66 µM (inactive),8.99 µM (inactive),2.86 µM (inactive),3.19 µM (inactive),4.27 µM (inactive),8.79 µM (inactive),12.3 µM (inactive),14.3 µM (inactive),10.5 µM (inactive),16.9 µM (inactive),4.2 µM (inactive),11.7 µM (inactive),3.74 µM (inactive)
CCOc1ccc2nc(NC(NC(=O)c3cccnc3)(C(F)(F)F)C(F)(F)F)sc2c1,31.4 µM (inactive),35.7 µM (inactive),22.6 µM (inactive),25.4 µM (inactive),26,20.5 µM (inactive),> 100 µM (inactive),34.1 µM (inactive),25.5 µM (inactive),15.6 µM (inactive),24 µM (inactive),49.2 µM (inactive),35.2 µM (inactive),38.5 µM (inactive),20.5 µM (inactive),93.8 µM (inactive),25.2 µM (inactive),21 µM (inactive),25.6 µM (inactive)
CC(=O)NC1C(OCc2ccccc2)OC(CO)C(O)C1OCC(=O)NC(C)C(=O)NC(CCC(=O)Nc1ccc2c(c1)CN1C(=O)c3ccccc3C1=N2)C(N)=O (stereo not given),> 100 µM (inactive),> 100 µM (inactive),> 100 µM (inactive),> 100 µM (inactive),> 100,76.7 µM (inactive),> 100 µM (inactive),> 100 µM (inactive),53.2 µM (inactive),> 100 µM (inactive),> 100 µM (inactive),> 100 µM (inactive),> 100 µM (inactive),> 100 µM (inactive),> 100 µM (inactive),> 100 µM (inactive),> 100 µM (inactive),42.8 µM (inactive),> 100 µM (inactive)
COC(=O)[C@H](COC(=O)/C=C/c1ccc(OC(C)=O)c(OC(C)=O)c1)NC(=O)/C=C/c1ccc(OC(C)=O)c(OC(C)=O)c1,30.7 µM (inactive),14.1 µM (inactive),15.5 µM (inactive),16.7 µM (inactive),18.8,22.2 µM (inactive),21.7 µM (inactive),21.2 µM (inactive),38.4 µM (inactive),17.1 µM (inactive),17.4 µM (inactive),45.1 µM (inactive),30.5 µM (inactive),18.5 µM (inactive),16.4 µM (inactive),22.2 µM (inactive),18.8 µM (inactive),2.81 µM (inactive),15 µM (inactive)
Cc1cc(C)c2c(O)c(S(=O)(=O)c3ccc(Cl)cc3)c(=O)oc2c1,46.3 µM (inactive),84.9 µM (inactive),22.7 µM (inactive),53.5 µM (inactive),49.7,65.6 µM (inactive),39.4 µM (inactive),34.3 µM (inactive),50.6 µM (inactive),79.1 µM (inactive),41.7 µM (inactive),> 100 µM (inactive),51.9 µM (inactive),32.7 µM (inactive),60 µM (inactive),70.8 µM (inactive),65.3 µM (inactive),99.8 µM (inactive),58.6 µM (inactive)
CN(C)CCn1c(=O)c2ccc3c4c(nn3CCN(C)C)c3ccccc3n(c1=O)c24,0.134 µM (active),0.208 µM (active),< 0.0113 µM (active),0.193 µM (active),< 0.125,1.87 µM (inactive),0.526 µM (active),0.411 µM (active),0.188 µM (active),0.248 µM (active),0.141 µM (active),0.571 µM (active),1.85 µM (inactive),0.423 µM (active),0.728 µM (active),0.412 µM (active),0.148 µM (active),0.524 µM (active),0.564 µM (active)
Oc1cc(Br)cc2cc(Cl)cnc12,2.06 µM (inactive),4.56 µM (inactive),3.99 µM (inactive),1.66 µM (inactive),0.665,23.4 µM (inactive),0.845 µM (active),1.35 µM (inactive),3.33 µM (inactive),3.45 µM (inactive),1 µM (active),3.19 µM (inactive),3.29 µM (inactive),22.3 µM (inactive),1.71 µM (inactive),30.2 µM (inactive),3.13 µM (inactive),3.21 µM (inactive),2.08 µM (inactive)
COc1cc2c(SCCN(C)C)nc3ccccc3c2c2ccccc12,1.77 µM (inactive),3.71 µM (inactive),1.67 µM (inactive),1.67 µM (inactive),1.61,1.73 µM (inactive),2.13 µM (inactive),1.68 µM (inactive),1.66 µM (inactive),2.19 µM (inactive),2.62 µM (inactive),1.74 µM (inactive),1.78 µM (inactive),1.87 µM (inactive),1.83 µM (inactive),10.4 µM (inactive),2.52 µM (inactive),2.7 µM (inactive),1.63 µM (inactive)
COc1cc2c(c(O)c1OC)C(O)C1CCC(=O)N1C2c1cccc2ccccc12 (stereo not given),99.1 µM (inactive),> 100 µM (inactive),67.8 µM (inactive),> 100 µM (inactive),> 100,> 100 µM (inactive),48 µM (inactive),> 100 µM (inactive),> 100 µM (inactive),76.4 µM (inactive),65.6 µM (inactive),> 100 µM (inactive),> 100 µM (inactive),> 100 µM (inactive),> 100 µM (inactive),56.1 µM (inactive),> 100 µM (inactive),> 100 µM (inactive),> 100 µM (inactive)
Cc1c(C#N)c2nnn(-c3ccc([N+](=O)[O-])cc3)c(=O)n2c1-c1ccccc1,10.1 µM (inactive),9.44 µM (inactive),8.89 µM (inactive),6.62 µM (inactive),6.15,8.05 µM (inactive),25.5 µM (inactive),11.4 µM (inactive),6.22 µM (inactive),10.2 µM (inactive),8.04 µM (inactive),14.6 µM (inactive),19.2 µM (inactive),9.57 µM (inactive),12.6 µM (inactive),24.3 µM (inactive),11.5 µM (inactive),3.49 µM (inactive),6.19 µM (inactive)
